Results published in article PMC5218480 (PLoS ONE, 2017).

Tested on: MV-4-11 cells
Experiment: Gene expression microarray analysis (Affymetrix PrimeView) and GSEA
Assay type: cell-based, human
Set-up: RFU PODN (11730768_x_at) / Fold change /veh PODN (11730768_x_at) / RFU LINC00158 (11744669_a_at) / Fold change /veh LINC00158 (11744669_a_at) / RFU DUSP10 (11751237_a_at) / Fold change /veh DUSP10 (11751237_a_at) / RFU ID3 (11757404_x_at) / Fold change /veh ID3 (11757404_x_at) / RFU PLEKHG5 (11737974_s_at) / Fold change /veh PLEKHG5 (11737974_s_at) / RFU LRRC4B (11730491_at) / Fold change /veh LRRC4B (11730491_at) / RFU GIMAP4 (11747438_a_at) / Fold change /veh GIMAP4 (11747438_a_at) / RFU KRT8 (11758183_x_at) / Fold change /veh KRT8 (11758183_x_at) / RFU CNN1 (11734310_a_at) / Fold change /veh CNN1 (11734310_a_at) / RFU VPS37D (11726825_at) / Fold change /veh VPS37D (11726825_at) / RFU C10orf10 (11716522_x_at) / Fold change /veh C10orf10 (11716522_x_at) / RFU KIR2DL2 /// KIR2DL4 /// KIR2DL5A /// KIR2DL5B /// KIR2DS1 /// KIR2DS2 /// KIR2DS3 /// KIR2DS4 /// KIR3DL3 /// KIR3DL3 /// KIR3DS1 (11738374_at) / Fold change /veh KIR2DL2 /// KIR2DL4 /// KIR2DL5A /// KIR2DL5B /// KIR2DS1 /// KIR2DS2 /// KIR2DS3 /// KIR2DS4 /// KIR3DL3 /// KIR3DL3 /// KIR3DS1 (11738374_at) / RFU C1QL1 (11718748_at) / Fold change /veh C1QL1 (11718748_at) / RFU TMPRSS4 (11747572_a_at) / Fold change /veh TMPRSS4 (11747572_a_at) / RFU HAMP (11756126_x_at) / Fold change /veh HAMP (11756126_x_at) / RFU RNFT2 (11725882_a_at) / Fold change /veh RNFT2 (11725882_a_at) / RFU NR4A2 (11747474_a_at) / Fold change /veh NR4A2 (11747474_a_at) / RFU ABCC12 (11746883_a_at) / Fold change /veh ABCC12 (11746883_a_at) / RFU TMEM136 (11760407_x_at) / Fold change /veh TMEM136 (11760407_x_at) / RFU CLDN22 /// WWC2 (11732394_at) / Fold change /veh CLDN22 /// WWC2 (11732394_at) / RFU HLA-DPB1 (11760878_x_at) / Fold change /veh HLA-DPB1 (11760878_x_at) / RFU SPINT1 (11716480_a_at) / Fold change /veh SPINT1 (11716480_a_at) / RFU GAP43 (11754022_s_at) / Fold change /veh GAP43 (11754022_s_at) / RFU A4GNT (11735810_at) / Fold change /veh A4GNT (11735810_at) / RFU PRB3 (11715151_x_at) / Fold change /veh PRB3 (11715151_x_at) / RFU TUBB4B (11761932_at) / Fold change /veh TUBB4B (11761932_at) / RFU CAPN14 (11732068_a_at) / Fold change /veh CAPN14 (11732068_a_at) / RFU TMCC2 (11721928_a_at) / Fold change /veh TMCC2 (11721928_a_at) / RFU IRGQ (11745062_a_at) / Fold change /veh IRGQ (11745062_a_at) / RFU FAM174B (11720279_a_at) / Fold change /veh FAM174B (11720279_a_at) / RFU TMPRSS4 (11748680_a_at) / Fold change /veh TMPRSS4 (11748680_a_at) / RFU FAM212B (11763350_a_at) / Fold change /veh FAM212B (11763350_a_at) / RFU PLEKHG5 (11743358_a_at) / Fold change /veh PLEKHG5 (11743358_a_at) / RFU ZSCAN30 (11745921_a_at) / Fold change /veh ZSCAN30 (11745921_a_at) / RFU CMKLR1 (11741424_a_at) / Fold change /veh CMKLR1 (11741424_a_at) / RFU LOC101060620 /// MAPK8IP1 (11723275_at) / Fold change /veh LOC101060620 /// MAPK8IP1 (11723275_at) / RFU SPTSSB (11747773_x_at) / Fold change /veh SPTSSB (11747773_x_at) / RFU PRSS12 (11739890_at) / Fold change /veh PRSS12 (11739890_at) / RFU BIN1 (11741810_x_at) / Fold change /veh BIN1 (11741810_x_at) / RFU WNT11 (11732464_a_at) / Fold change /veh WNT11 (11732464_a_at) / RFU C10orf10 (11716521_a_at) / Fold change /veh C10orf10 (11716521_a_at) / RFU C5orf56 (11738089_at) / Fold change /veh C5orf56 (11738089_at) / RFU CYB561 (11721691_x_at) / Fold change /veh CYB561 (11721691_x_at) / RFU ANKRD19P (11752326_a_at) / Fold change /veh ANKRD19P (11752326_a_at) / RFU OR2T12 /// OR2T33 /// OR2T8 (11738714_s_at) / Fold change /veh OR2T12 /// OR2T33 /// OR2T8 (11738714_s_at) / RFU VCAN (11748164_a_at) / Fold change /veh VCAN (11748164_a_at) / RFU JSRP1 (11732532_at) / Fold change /veh JSRP1 (11732532_at) / RFU KRTAP10-11 (11738290_x_at) / Fold change /veh KRTAP10-11 (11738290_x_at) / RFU MYO3A (11730013_a_at) / Fold change /veh MYO3A (11730013_a_at) / RFU EBF3 (11725865_a_at) / Fold change /veh EBF3 (11725865_a_at) / RFU CAMK2N1 (11719241_x_at) / Fold change /veh CAMK2N1 (11719241_x_at) / RFU C5orf56 (11738088_a_at) / Fold change /veh C5orf56 (11738088_a_at) / RFU OLFML3 (11715873_a_at) / Fold change /veh OLFML3 (11715873_a_at) / RFU LOC100653217 /// NTM (11731650_a_at) / Fold change /veh LOC100653217 /// NTM (11731650_a_at) / RFU MAPK11 (11762145_a_at) / Fold change /veh MAPK11 (11762145_a_at) / RFU FIZ1 (11724087_x_at) / Fold change /veh FIZ1 (11724087_x_at) / RFU OASL (11726364_x_at) / Fold change /veh OASL (11726364_x_at) / RFU SOX15 (11748057_x_at) / Fold change /veh SOX15 (11748057_x_at) / RFU CD79A (11719716_a_at) / Fold change /veh CD79A (11719716_a_at) / RFU HIST1H1D (11736915_at) / Fold change /veh HIST1H1D (11736915_at) / RFU CASKIN2 (11723855_a_at) / Fold change /veh CASKIN2 (11723855_a_at) / RFU LOC730098 (11760151_x_at) / Fold change /veh LOC730098 (11760151_x_at) / RFU OR4N2 (11742367_at) / Fold change /veh OR4N2 (11742367_at) / RFU PRRT2 (11749266_a_at) / Fold change /veh PRRT2 (11749266_a_at) / RFU SNX32 (11753110_a_at) / Fold change /veh SNX32 (11753110_a_at) / RFU CDHR5 (11726645_a_at) / Fold change /veh CDHR5 (11726645_a_at) / RFU RCAN1 (11760418_a_at) / Fold change /veh RCAN1 (11760418_a_at) / RFU FAM167A (11723789_a_at) / Fold change /veh FAM167A (11723789_a_at) / RFU FAM26E (11764081_at) / Fold change /veh FAM26E (11764081_at) / RFU ISYNA1 (11749810_s_at) / Fold change /veh ISYNA1 (11749810_s_at) / RFU ACY1 (11761880_at) / Fold change /veh ACY1 (11761880_at) / RFU 11764098_at / Fold change /veh 11764098_at / RFU SAMD14 (11745864_x_at) / Fold change /veh SAMD14 (11745864_x_at) / RFU NPB (11741838_a_at) / Fold change /veh NPB (11741838_a_at) / RFU TMPRSS6 (11731388_a_at) / Fold change /veh TMPRSS6 (11731388_a_at) / RFU KRTAP10-2 (11738614_at) / Fold change /veh KRTAP10-2 (11738614_at) / RFU ARHGAP8 /// PRR5-ARHGAP8 (11727945_x_at) / Fold change /veh ARHGAP8 /// PRR5-ARHGAP8 (11727945_x_at) / RFU KRTAP5-7 /// NADSYN1 (11734609_at) / Fold change /veh KRTAP5-7 /// NADSYN1 (11734609_at) / RFU RASL12 (11751679_a_at) / Fold change /veh RASL12 (11751679_a_at) / RFU CDKN2B (11736163_a_at) / Fold change /veh CDKN2B (11736163_a_at) / RFU PRF1 (11729649_at) / Fold change /veh PRF1 (11729649_at) / RFU, ZNF638 /// ZNF638-IT1 / Fold change vs veh, ZNF638 /// ZNF638-IT1 / RFU, PANK3 / Fold change vs veh, PANK3 / RFU, SH3YL1 / Fold change vs veh, SH3YL1 / RFU, ZEB2 / Fold change vs veh, ZEB2 / RFU, NRIP1 / Fold change vs veh, NRIP1 / RFU, PTTG1IP / Fold change vs veh, PTTG1IP / RFU, CAPN2 / Fold change vs veh, CAPN2 / RFU, MED14 / Fold change vs veh, MED14 / RFU, SNORA58 / Fold change vs veh, SNORA58 / RFU, C1orf63 / Fold change vs veh, C1orf63 / RFU, LRRFIP1 / Fold change vs veh, LRRFIP1 / RFU, NDUFAF7 / Fold change vs veh, NDUFAF7 / RFU, SLC12A2 / Fold change vs veh, SLC12A2 / RFU, IBTK / Fold change vs veh, IBTK / RFU, ESF1 / Fold change vs veh, ESF1 / Fold change vs veh, TMEM50B / RFU, TAOK1 / Fold change vs veh, TAOK1 / RFU, ACBD3 / Fold change vs veh, ACBD3 / RFU, TMA16 / Fold change vs veh, TMA16 / RFU, RWDD3 / Fold change vs veh, RWDD3 / RFU, BCAT1 / Fold change vs veh, BCAT1 / RFU, EDEM3 / Fold change vs veh, EDEM3 / RFU, TMEM33 / Fold change vs veh, TMEM33 / RFU, WDR75 / Fold change vs veh, WDR75 / RFU, AHCTF1 / Fold change vs veh, AHCTF1 / RFU, TFRC / Fold change vs veh, TFRC / RFU, ZDHHC17 / Fold change vs veh, ZDHHC17 / RFU, NOM1 / Fold change vs veh, NOM1 / RFU, ARL8B / Fold change vs veh, ARL8B / RFU, ZBTB11 / Fold change vs veh, ZBTB11 / RFU, TAMM41 / Fold change vs veh, TAMM41 / RFU, KIAA1704 /// LOC100996395 / Fold change vs veh, KIAA1704 /// LOC100996395 / RFU, ING1 / Fold change vs veh, ING1 / RFU, TRMT61B / Fold change vs veh, TRMT61B / RFU, FUBP3 / Fold change vs veh, FUBP3 / RFU, TP53 / Fold change vs veh, TP53 / RFU, TNKS2 / Fold change vs veh, TNKS2 / RFU, ZFP14 / Fold change vs veh, ZFP14 / RFU, ACTR2 / Fold change vs veh, ACTR2 / RFU, PPP3R1 / Fold change vs veh, PPP3R1 / RFU, PIK3R1 / Fold change vs veh, PIK3R1 / RFU, HNRNPA1 / Fold change vs veh, HNRNPA1 / RFU, RNF170 / Fold change vs veh, RNF170 / RFU, ZNF28 / Fold change vs veh, ZNF28 / RFU, RNGTT / Fold change vs veh, RNGTT / RFU, OGT / Fold change vs veh, OGT / RFU, BRD1 / Fold change vs veh, BRD1 / RFU, MARS / Fold change vs veh, MARS / RFU, ZNF655 / Fold change vs veh, ZNF655 / RFU, FAHD1 / Fold change vs veh, FAHD1 / RFU, BDP1 / Fold change vs veh, BDP1 / RFU, LRRCC1 / Fold change vs veh, LRRCC1 / RFU, ARID1A / Fold change vs veh, ARID1A / RFU, ZNF146 / Fold change vs veh, ZNF146 / RFU, ZNF330 / Fold change vs veh, ZNF330 / RFU, GPN3 / Fold change vs veh, GPN3 / RFU, C9orf123 / Fold change vs veh, C9orf123 / RFU, N4BP2L2 / Fold change vs veh, N4BP2L2 / RFU, ARFIP1 / Fold change vs veh, ARFIP1 / RFU, FAM179B / Fold change vs veh, FAM179B / RFU, BCL10 / Fold change vs veh, BCL10 / RFU, UHRF1BP1L / Fold change vs veh, UHRF1BP1L / RFU, BET1 / Fold change vs veh, BET1 / RFU, CNOT2 / Fold change vs veh, CNOT2 / RFU, ZNF268 / Fold change vs veh, ZNF268 / Fold change vs veh, ZNF507 / RFU, DGCR2 / Fold change vs veh, DGCR2 / RFU, WDSUB1 / Fold change vs veh, WDSUB1 / Fold change vs veh, HSP90B1 /// MIR3652 / RFU, ADSS / Fold change vs veh, ADSS / RFU, GK / Fold change vs veh, GK / RFU, ZNF148 / Fold change vs veh, ZNF148 / RFU, TAF9 / Fold change vs veh, TAF9 / RFU, SLC1A5 / Fold change vs veh, SLC1A5 / RFU, SLMO2 / Fold change vs veh, SLMO2 / RFU, ABCC4 / Fold change vs veh, ABCC4 / RFU, LOC101060439 /// RAP1B / Fold change vs veh, LOC101060439 /// RAP1B / RFU, RFX7 / Fold change vs veh, RFX7 / RFU, GTPBP10 / Fold change vs veh, GTPBP10 / RFU, CNEP1R1 / Fold change vs veh, CNEP1R1 / RFU, BIVM-ERCC5 /// ERCC5 / Fold change vs veh, BIVM-ERCC5 /// ERCC5 / RFU, ILF3 / Fold change vs veh, ILF3 / RFU 11762660_at / Fold change /veh 11762660_at / RFU VCAN (11757783_s_at) / Fold change /veh VCAN (11757783_s_at) / RFU DDX43 (11728927_at) / Fold change /veh DDX43 (11728927_at) / RFU KRT8 (11758188_x_at) / Fold change /veh KRT8 (11758188_x_at) / RFU NKD1 (11759106_at) / Fold change /veh NKD1 (11759106_at) / RFU SRD5A1 (11742802_a_at) / Fold change /veh SRD5A1 (11742802_a_at) / RFU TPSAB1 /// TPSB2 (11721975_s_at) / Fold change /veh TPSAB1 /// TPSB2 (11721975_s_at) / RFU GSTM3 (11746129_a_at) / Fold change /veh GSTM3 (11746129_a_at) / RFU IL23R (11737362_x_at) / Fold change /veh IL23R (11737362_x_at) / RFU TMEM51 (11727254_a_at) / Fold change /veh TMEM51 (11727254_a_at) / RFU PIWIL2 (11732686_x_at) / Fold change /veh PIWIL2 (11732686_x_at) / RFU ORM1 (11744905_x_at) / Fold change /veh ORM1 (11744905_x_at) / RFU CCDC152 (11743942_at) / Fold change /veh CCDC152 (11743942_at) / RFU ECM1 (11717891_a_at) / Fold change /veh ECM1 (11717891_a_at) / RFU IL23R (11748794_a_at) / Fold change /veh IL23R (11748794_a_at) / RFU TNFAIP8L3 (11732012_x_at) / Fold change /veh TNFAIP8L3 (11732012_x_at) / RFU MBOAT4 (11741988_at) / Fold change /veh MBOAT4 (11741988_at) / RFU 11764193_at / Fold change /veh 11764193_at / RFU TMEM53 (11763286_at) / Fold change /veh TMEM53 (11763286_at) / RFU MAGEB2 (11727129_at) / Fold change /veh MAGEB2 (11727129_at) / RFU TMEM200A (11744735_a_at) / Fold change /veh TMEM200A (11744735_a_at) / RFU CCDC152 (11751479_a_at) / Fold change /veh CCDC152 (11751479_a_at) / RFU FAM211A (11726209_a_at) / Fold change /veh FAM211A (11726209_a_at) / RFU RGS16 (11746705_a_at) / Fold change /veh RGS16 (11746705_a_at) / RFU VCAN (11755009_s_at) / Fold change /veh VCAN (11755009_s_at) / RFU RHOB (11743442_s_at) / Fold change /veh RHOB (11743442_s_at) / RFU RGS16 (11720943_a_at) / Fold change /veh RGS16 (11720943_a_at) / RFU RGS16 (11720944_at) / Fold change /veh RGS16 (11720944_at) / RFU, VPS4B / Fold change vs veh, VPS4B / RFU, CREB1 / Fold change vs veh, CREB1 / RFU, DNAJC13 / Fold change vs veh, DNAJC13 / RFU, GNAQ / Fold change vs veh, GNAQ / RFU, CDK5R1 / Fold change vs veh, CDK5R1 / RFU, ZRANB3 / Fold change vs veh, ZRANB3 / RFU, CUL4A / Fold change vs veh, CUL4A / RFU, CCNY / Fold change vs veh, CCNY / RFU, UFL1 / Fold change vs veh, UFL1 / RFU, COG3 / Fold change vs veh, COG3 / RFU, DIAPH2 / Fold change vs veh, DIAPH2 / RFU, SKA2 / Fold change vs veh, SKA2 / RFU, AFF3 / Fold change vs veh, AFF3 / RFU, LMF1 / Fold change vs veh, LMF1 / RFU, IPO11 / Fold change vs veh, IPO11 / RFU, DFFB / Fold change vs veh, DFFB / RFU, FOXP1 / Fold change vs veh, FOXP1 / RFU, CARD8 / Fold change vs veh, CARD8 / RFU, STRN3 / Fold change vs veh, STRN3 / RFU, ADK / Fold change vs veh, ADK / RFU, RASSF2 / Fold change vs veh, RASSF2 / RFU, WIPF1 / Fold change vs veh, WIPF1 / RFU, LARP1B / Fold change vs veh, LARP1B / RFU, RASA1 / Fold change vs veh, RASA1 / RFU, RB1 / Fold change vs veh, RB1 / RFU, PPFIA1 / Fold change vs veh, PPFIA1 / RFU, MAT2A / Fold change vs veh, MAT2A / RFU, CCT5 / Fold change vs veh, CCT5 / RFU, WDR92 / Fold change vs veh, WDR92 / RFU, CUX1 / Fold change vs veh, CUX1 / RFU, TTC7A / Fold change vs veh, TTC7A / RFU, TMEM135 / Fold change vs veh, TMEM135 / RFU, DEPTOR / Fold change vs veh, DEPTOR / RFU, CPM / Fold change vs veh, CPM / RFU, DNAJB6 / Fold change vs veh, DNAJB6 / RFU, CACNA2D3 / Fold change vs veh, CACNA2D3 / RFU, DTX4 / Fold change vs veh, DTX4 / RFU, TFCP2 / Fold change vs veh, TFCP2 / RFU, GMCL1 /// GMCL1P1 / Fold change vs veh, GMCL1 /// GMCL1P1 / RFU, AEBP2 / Fold change vs veh, AEBP2 / RFU, SNHG1 /// SNORD22 /// SNORD25 /// SNORD26 /// SNORD27 /// SNORD28 /// SNORD29 /// SNORD31 / Fold change vs veh, SNHG1 /// SNORD22 /// SNORD25 /// SNORD26 /// SNORD27 /// SNORD28 /// SNORD29 /// SNORD31 / Fold change (Aza/veh), C12orf56 (ProbeSet 11735607_a_at) / Fold change (ACY-1035/veh), C12orf56 (ProbeSet 11735607_a_at) / Fold change (Aza/veh), FGFR1OP (ProbeSet 11751329_s_at) / Fold change (ACY-1035/veh), FGFR1OP (ProbeSet 11751329_s_at) / Fold change (Aza/veh), VPS36 (ProbeSet 11739960_a_at) / Fold change (ACY-1035/veh), VPS36 (ProbeSet 11739960_a_at) / RFU SYPL1 (11715823_x_at) / Fold change /veh SYPL1 (11715823_x_at) / RFU IGFBP7 (11715501_s_at) / Fold change /veh IGFBP7 (11715501_s_at) / RFU REEP3 (11722064_at) / Fold change /veh REEP3 (11722064_at) / RFU IGLL1 (11728026_x_at) / Fold change /veh IGLL1 (11728026_x_at): dose or concentration left out as unconfirmed
Conditions: MV-4-11 cells, 48 hours

Nc1ncn([C@@H]2O[C@H](CO)[C@@H](O)[C@H]2O)c(=O)n1 [azacitidine]
Fold change /veh CCDC152 (11751479_a_at): 2.85
